How the values were obtained:
Met = target: T1, Met (Homo sapiens, UniProt P08581); assay: LanthaScreen Eu kinase binding assay, Met; conditions: Tracer 236, read-out: cMet kinase binding activity (Kd)
T1 construct: purchased Life Technologies
Experimental: (§1) LanthaScreen® Eu Kinase Binding assays were conducted at Life Technologies using the manufacturer's specifications for each kinase indicated.
(§2) Briefly, the principle behind this assay is based upon the binding and displacement of an Alexa Fluor 647-labeled tracer to the kinase of interest. Binding of the tracer to the kinase is detected using an EU-labeled anti-tag antibody. Simultaneous binding of both the tracer and antibody to the kinase gives rise to a FRET-signal. Binding of an inhibitor to the kinase competes for binding with the tracer, resulting in a loss of FRET-signal.
(§3) Binding Assay Protocol for AXL, Mer, Tyro3 and Met
(§4) A given compound was diluted in DMSO to make a stock compound solution. The stock compound solution was serially diluted over eight steps in DMSO. Each diluted compound solution in DMSO was diluted in kinase buffer. Afterwards four kinds of working solution were prepared. First, Tracer-Working solution consists of Tracer 236 and Kinase Buffer. Second, Axl, Mer, Tyro3 or Met/anti-GST-AB-Working solution contained one of the kinases Axl, Mer, Tyro3, Met or anti-GST-AB (=anti glutathione-S-transferase antibody) in Kinase Buffer. Third, anti-GST-AB-Working solution was made with anti-GST-AB and Kinase Buffer. Last, in the DMSO-Working solution DMSO was added to Kinase Buffer to a final concentration to 3%. Each of the four kinds of working solutions were separately added to the assay plate and then incubated for 1 h at room temperature. After incubation, the assay plate was measured with respect to the FRET-Signal with the EnVision (Perkin Elmer) using the program LanthaHTRF-Assay. Data evaluation was done in the Quattro Workflow software.
(§5) Table 1 summarises the results obtained for AXL, Mer and Tyro3-kinases binding assays; table 2 summarises the results obtained for the Met kinase binding assay.

Axl = target: T2, Axl (Homo sapiens, UniProt P30530); assay: LanthaScreen Eu kinase binding assay, Axl; conditions: Tracer 236
T2 construct: purchased Life Technologies
T2 sequence (P30530 26-894): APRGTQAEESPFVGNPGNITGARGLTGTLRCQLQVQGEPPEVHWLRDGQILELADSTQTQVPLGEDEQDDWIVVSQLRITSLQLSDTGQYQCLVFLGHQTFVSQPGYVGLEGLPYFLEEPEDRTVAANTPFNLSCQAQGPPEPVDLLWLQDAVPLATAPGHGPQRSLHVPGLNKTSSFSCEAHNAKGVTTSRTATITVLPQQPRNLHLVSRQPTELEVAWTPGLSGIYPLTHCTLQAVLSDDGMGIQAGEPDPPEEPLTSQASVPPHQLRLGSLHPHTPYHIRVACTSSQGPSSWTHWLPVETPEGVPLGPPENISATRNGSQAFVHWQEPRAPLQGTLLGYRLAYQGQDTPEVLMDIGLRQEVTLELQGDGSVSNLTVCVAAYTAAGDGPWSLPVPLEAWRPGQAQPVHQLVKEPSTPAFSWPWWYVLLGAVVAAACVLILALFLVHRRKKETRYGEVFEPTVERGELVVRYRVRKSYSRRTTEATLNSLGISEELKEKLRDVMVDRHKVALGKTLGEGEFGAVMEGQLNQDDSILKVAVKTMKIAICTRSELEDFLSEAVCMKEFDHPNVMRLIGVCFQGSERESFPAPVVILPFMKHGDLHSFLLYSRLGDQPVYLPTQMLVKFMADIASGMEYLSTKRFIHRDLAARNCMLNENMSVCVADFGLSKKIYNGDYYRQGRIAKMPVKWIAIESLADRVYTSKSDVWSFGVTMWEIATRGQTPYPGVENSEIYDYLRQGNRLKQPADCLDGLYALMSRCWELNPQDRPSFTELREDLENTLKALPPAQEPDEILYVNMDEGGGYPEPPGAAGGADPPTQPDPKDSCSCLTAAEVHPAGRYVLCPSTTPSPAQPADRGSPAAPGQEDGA
Experimental: as §1, §2, §3, §4, §5

TYRO3 = target: T3, TYRO3 (Homo sapiens, UniProt Q06418); assay: LanthaScreen Eu kinase binding assay, TYRO3; conditions: Tracer 236
T3 construct: purchased Life Technologies
T3 sequence (Q06418 41-890): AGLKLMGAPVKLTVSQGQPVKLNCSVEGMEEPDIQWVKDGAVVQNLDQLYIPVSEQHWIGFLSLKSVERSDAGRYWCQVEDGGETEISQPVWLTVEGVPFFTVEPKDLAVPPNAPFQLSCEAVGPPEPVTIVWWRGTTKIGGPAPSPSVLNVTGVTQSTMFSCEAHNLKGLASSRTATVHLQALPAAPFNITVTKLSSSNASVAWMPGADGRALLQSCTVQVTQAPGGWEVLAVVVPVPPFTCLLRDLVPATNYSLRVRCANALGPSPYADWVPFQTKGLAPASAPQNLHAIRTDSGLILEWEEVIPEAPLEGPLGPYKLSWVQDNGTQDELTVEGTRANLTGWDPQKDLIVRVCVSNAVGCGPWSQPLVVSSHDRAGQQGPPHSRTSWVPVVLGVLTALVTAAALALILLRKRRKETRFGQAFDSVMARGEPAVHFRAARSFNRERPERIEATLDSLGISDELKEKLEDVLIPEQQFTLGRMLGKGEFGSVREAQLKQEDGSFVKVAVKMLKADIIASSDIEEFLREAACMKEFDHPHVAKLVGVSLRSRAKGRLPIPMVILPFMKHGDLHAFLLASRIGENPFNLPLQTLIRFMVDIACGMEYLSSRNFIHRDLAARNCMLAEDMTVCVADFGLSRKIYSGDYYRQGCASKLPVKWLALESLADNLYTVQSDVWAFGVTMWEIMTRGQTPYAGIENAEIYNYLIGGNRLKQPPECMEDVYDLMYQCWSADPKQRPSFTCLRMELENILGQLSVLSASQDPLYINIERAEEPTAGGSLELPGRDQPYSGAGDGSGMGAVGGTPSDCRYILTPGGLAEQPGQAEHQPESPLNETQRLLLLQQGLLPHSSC
Experimental: as §1, §2, §3, §4, §5

Mer = target: T4, Mer (Homo sapiens, UniProt Q12866); assay: LanthaScreen Eu kinase binding assay, Mer; conditions: Tracer 236
T4 construct: purchased Life Technologies
T4 sequence (Q12866 21-999): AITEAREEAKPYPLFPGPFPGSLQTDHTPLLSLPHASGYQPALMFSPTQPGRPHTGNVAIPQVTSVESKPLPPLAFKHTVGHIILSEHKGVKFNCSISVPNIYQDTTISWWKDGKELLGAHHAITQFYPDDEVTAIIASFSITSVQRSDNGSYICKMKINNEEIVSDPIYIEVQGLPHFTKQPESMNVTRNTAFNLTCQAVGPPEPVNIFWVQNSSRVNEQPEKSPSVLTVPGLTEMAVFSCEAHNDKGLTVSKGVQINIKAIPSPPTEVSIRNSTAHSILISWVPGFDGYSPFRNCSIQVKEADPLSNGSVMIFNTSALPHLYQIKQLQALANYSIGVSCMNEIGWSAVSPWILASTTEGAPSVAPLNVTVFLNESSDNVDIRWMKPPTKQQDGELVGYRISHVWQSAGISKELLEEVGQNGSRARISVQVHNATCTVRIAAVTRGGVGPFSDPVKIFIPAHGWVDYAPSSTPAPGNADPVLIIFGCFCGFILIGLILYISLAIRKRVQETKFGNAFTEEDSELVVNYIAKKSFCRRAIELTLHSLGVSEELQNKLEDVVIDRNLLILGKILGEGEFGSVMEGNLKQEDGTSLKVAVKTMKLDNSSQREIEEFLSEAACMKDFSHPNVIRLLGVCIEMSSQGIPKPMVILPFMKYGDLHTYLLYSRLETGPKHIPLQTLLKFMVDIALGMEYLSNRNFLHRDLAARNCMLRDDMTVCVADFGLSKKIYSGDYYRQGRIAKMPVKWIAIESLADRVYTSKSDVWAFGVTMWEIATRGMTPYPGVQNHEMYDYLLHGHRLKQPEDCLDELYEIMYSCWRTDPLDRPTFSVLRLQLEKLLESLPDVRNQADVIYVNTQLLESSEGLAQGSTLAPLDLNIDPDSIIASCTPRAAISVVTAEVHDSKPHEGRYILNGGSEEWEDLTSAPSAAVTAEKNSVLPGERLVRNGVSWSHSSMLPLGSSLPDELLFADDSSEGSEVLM
Experimental: as §1, §2, §3, §4, §5

T1 sequence (P08581 25-1390): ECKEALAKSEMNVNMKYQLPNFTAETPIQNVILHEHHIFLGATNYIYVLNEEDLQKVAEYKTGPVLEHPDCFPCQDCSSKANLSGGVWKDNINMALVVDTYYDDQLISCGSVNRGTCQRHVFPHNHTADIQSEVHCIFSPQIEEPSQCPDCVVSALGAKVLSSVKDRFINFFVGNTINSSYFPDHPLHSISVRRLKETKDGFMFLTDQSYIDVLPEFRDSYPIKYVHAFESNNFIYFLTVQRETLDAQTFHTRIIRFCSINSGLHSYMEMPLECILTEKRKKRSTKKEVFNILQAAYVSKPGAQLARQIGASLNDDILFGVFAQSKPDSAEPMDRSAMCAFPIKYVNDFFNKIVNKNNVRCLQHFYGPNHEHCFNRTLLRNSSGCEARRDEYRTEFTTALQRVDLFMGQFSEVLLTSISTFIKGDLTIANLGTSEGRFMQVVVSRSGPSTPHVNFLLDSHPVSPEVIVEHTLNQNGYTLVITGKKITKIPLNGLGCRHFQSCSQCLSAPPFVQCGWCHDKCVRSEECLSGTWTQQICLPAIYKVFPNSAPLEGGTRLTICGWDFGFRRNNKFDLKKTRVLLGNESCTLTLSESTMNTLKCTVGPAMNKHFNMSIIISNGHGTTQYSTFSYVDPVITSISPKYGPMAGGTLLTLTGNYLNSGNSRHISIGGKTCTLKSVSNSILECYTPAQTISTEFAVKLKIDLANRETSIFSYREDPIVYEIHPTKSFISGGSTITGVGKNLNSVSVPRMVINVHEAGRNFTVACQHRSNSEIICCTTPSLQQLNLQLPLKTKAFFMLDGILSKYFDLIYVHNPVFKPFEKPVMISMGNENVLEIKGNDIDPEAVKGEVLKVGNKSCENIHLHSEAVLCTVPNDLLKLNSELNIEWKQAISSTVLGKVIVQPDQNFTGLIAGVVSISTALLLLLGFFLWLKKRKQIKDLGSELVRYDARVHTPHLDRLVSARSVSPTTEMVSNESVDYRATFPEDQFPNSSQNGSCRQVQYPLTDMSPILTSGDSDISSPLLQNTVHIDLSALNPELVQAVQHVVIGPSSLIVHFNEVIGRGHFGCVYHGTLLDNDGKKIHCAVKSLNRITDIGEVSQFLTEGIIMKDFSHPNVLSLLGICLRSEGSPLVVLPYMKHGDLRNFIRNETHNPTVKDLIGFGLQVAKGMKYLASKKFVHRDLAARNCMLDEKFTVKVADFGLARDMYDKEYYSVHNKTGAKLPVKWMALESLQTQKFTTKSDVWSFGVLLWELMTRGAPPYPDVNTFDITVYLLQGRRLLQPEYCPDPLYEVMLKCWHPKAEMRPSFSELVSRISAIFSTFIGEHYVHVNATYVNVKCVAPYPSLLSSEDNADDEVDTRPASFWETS

| Compound | Kd (Met) [nM] | Kd (Axl) [nM] | Kd (TYRO3) [nM] | Kd (Mer) [nM] |
| --- | --- | --- | --- | --- |
| CCOc1cnn(CCn2cccn2)c1C(=O)Nc1ccc(Oc2ccnc3cc(OC)c(OC)cc23)cn1 [Compound 42] | 100 to 1000 | 100 to 1000 | ≥ 1000 | < 100 |
| CCOc1cn(CCO)nc1C(=O)Nc1ccc(Oc2ccnc3cc(OC)c(OC)cc23)cn1 [Compound 70] | 100 to 1000 | 100 to 1000 | 100 to 1000 | < 100 |
| CCOc1cn(CC(N)=O)nc1C(=O)Nc1ccc(Oc2ccnc3cc(OC)c(OC)cc23)cn1 [Compound 35] | ≥ 1000 | 100 to 1000 | ≥ 1000 | < 100 |
| CCOc1cnn(-c2ccc(Cl)cc2C(F)(F)F)c1C(=O)Nc1ccc(Oc2ccnc3cc(OC)c(OC)cc23)cn1 [Compound 103] | 100 to 1000 | 100 to 1000 | 100 to 1000 | 100 to 1000 |
| CCOc1cn(-c2cncnc2)nc1C(=O)Nc1ccc(Oc2ccnc3cc(OC)c(OC)cc23)cn1 [Compound 2] | < 100 | < 100 | < 100 | < 100 |
| CCOc1c[nH]nc1C(=O)Nc1ccc(Oc2ccnc3cc(OC)c(OC)cc23)cn1 [Compound 22] | 100 to 1000 | 100 to 1000 | < 100 | < 100 |
| CCOc1cnn(-c2ccc(C(C)C)cc2)c1C(=O)Nc1ccc(Oc2ccnc3cc(OC)c(OC)cc23)cn1 [Compound 118] | 100 to 1000 | 100 to 1000 | 100 to 1000 | < 100 |
| CCOc1cnn(CCN(C)C)c1C(=O)Nc1ccc(Oc2ccnc3cc(OC)c(OC)cc23)cn1 [Compound 52] | ≥ 1000 | ≥ 1000 | ≥ 1000 | ≥ 1000 |
| CCOc1nn(-c2cccnc2)cc1C(=O)Nc1ccc(Oc2ccnc3cc(OC)c(OC)cc23)cn1 [Compound 46] | ≥ 1000 | ≥ 1000 | ≥ 1000 | ≥ 1000 |
| CCOc1cn(-c2ccc(C(C)(C)C)cc2)nc1C(=O)Nc1ccc(Oc2ccnc3cc(OC)c(OC)cc23)cn1 [Compound 121] | 100 to 1000 | 100 to 1000 | ≥ 1000 | < 100 |

The next lines start with the values.

| Kd (Met) [nM] | Kd (Axl) [nM] | Kd (TYRO3) [nM] | Kd (Mer) [nM] | Compound |
| --- | --- | --- | --- | --- |
| 100 to 1000 | 100 to 1000 | 100 to 1000 | 100 to 1000 | CCOc1cn(CC2CCNCC2)nc1C(=O)Nc1ccc(Oc2ccnc3cc(OC)c(OC)cc23)cc1F [Compound 218] |
| < 100 | < 100 | 100 to 1000 | < 100 | COc1cc2nccc(Oc3ccc(NC(=O)c4nn(-c5ccc(F)cc5C)cc4OCCN(C)C)cc3F)c2cc1OC [Compound 276] |
| 100 to 1000 | < 100 | < 100 | < 100 | CCC(C)Oc1cc2nccc(Oc3ccc(NC(=O)c4nn(-c5cnc(N)nc5)cc4OCC(F)(F)F)nc3)c2cc1OC (stereo not shown) [Compound 235] |
| ≥ 1000 | ≥ 1000 | ≥ 1000 | ≥ 1000 | CCOc1cnn(CC2CCN(C)CC2)c1C(=O)Nc1ccc(Oc2ccnc3cc(OC)c(OC)cc23)cc1F [Compound 220] |
| < 100 | < 100 | < 100 | < 100 | CCOc1cn(-c2cnccc2C(=O)OC)nc1C(=O)Nc1ccc(Oc2ccnc3cc(OC)c(OC)cc23)cn1 [Compound 172] |
| < 100 | < 100 | < 100 | < 100 | CCOc1cn(-c2cnc(N)nc2)nc1C(=O)Nc1ccc(Oc2ccnc3cc(OC)c(OC)cc23)c(Cl)c1 [Compound 146] |
| 100 to 1000 | 100 to 1000 | ≥ 1000 | 100 to 1000 | CCOc1cn(-c2c(CN(C)C)ccnc2C)nc1C(=O)Nc1ccc(Oc2ccnc3cc(OC)c(OC)cc23)cn1 [Compound 131] |
| 100 to 1000 | 100 to 1000 | 100 to 1000 | 100 to 1000 | COc1cc2nccc(Oc3ccc(NC(=O)c4nn(-c5ccc(F)cc5-c5ccccc5)cc4OCC4CC4)nc3)c2cc1OC [Compound 275] |
| ≥ 1000 | ≥ 1000 | < 100 | 100 to 1000 | CCOc1nn(-c2ccc(F)cc2C)cc1C(=O)Nc1ccc(Oc2ccnc3cc(OC)c(OC)cc23)c(F)c1 [Compound 277] |
| ≥ 1000 | ≥ 1000 | ≥ 1000 | 100 to 1000 | CCC(C)Oc1cc2nccc(Oc3ccc(NC(=O)c4c(OCC(F)(F)F)cnn4-c4cnc(N)nc4)nc3)c2cc1OC (stereo not shown) [Compound 238] |
| 100 to 1000 | 100 to 1000 | ≥ 1000 | 100 to 1000 | CCOc1cnn(-c2ccc(C(C)(C)C)cc2)c1C(=O)Nc1ccc(Oc2ccnc3cc(OC)c(OC)cc23)cn1 [Compound 123] |
| ≥ 1000 | ≥ 1000 | ≥ 1000 | < 100 | CCOc1cn(-c2cnccn2)nc1C(=O)Nc1ccc(Oc2ccnc3cc(OC)c(OC)cc23)cc1F [Compound 152] |
